From patent US7855233B2 (Teva Pharmaceutical Industries, Ltd., priority 2009, dated 2010)
In brackets after ≈: the same amount, converted by molar mass. Counter-ions that a name gives are not always drawn. Like-named read-outs stand apart in the source and are kept apart here.

Experiments:
[1] = from references, cited from earlier work
[2] = Exposure of citrate salts to atmospheric air in open dishes at ambient temperature; format: physicochemical; settings: for Changes on exposure to atmosphere (appearance): ambient temperature, open dish
Excerpt: (§1) The changes were observed and recorded.

[3] = Aqueous salt solutions held at +5° C.; format: physicochemical; settings: 15 hrs at +5° C.
Procedure: (§2) 3.02 g of Citric acid was dissolved in 4 ml deionized water. […] Exothermic effect was observed (temperature rose from 22 to 25° C.), and most of the solid was dissolved. Then the mixture was heated to 42° and complete dissolution of the solid was observed. The resulting clear viscous syrup-like solution was held in refrigerator at +5° C. overnight.
3.45 g of Citric acid was dissolved in 5 ml deionized water and pre-heated to 30° C. […] Exothermic effect was observed (temperature rose from 30 to 36° C.), and the solid was dissolved. The resulted clear viscous syrup-like solution was held in refrigerator at +5° C. overnight.
as §2, with “3.46” for “3.02”, “5” for “4”, “27°” for “25°”, “46° C. 0.5 ml water was added” for “42°”

[4] = Storage of citrate salts in sealed glass vials in refrigerator; format: physicochemical; settings: 7±2° C., sealed vial
Excerpt: as §1

[5] = Free rasagiline base in citrate salt preparations (toluene extraction, TLC, pH); settings: for Content of extractable base (toluene) % on total base content: by ratio base to acid mole:mole
[6] = cited from earlier work
[7] = Aqueous / water solubility; settings: aqueous citric acid reaction solution
[8] = target: B-form of the enzyme monoamine oxidase (“MAO-B”) (Homo sapiens, UniProt P27338); settings: reported in prior patents; cited from earlier work
Sequence of B-form of the enzyme monoamine oxidase (“MAO-B”) (P27338 whole entry, species assumed): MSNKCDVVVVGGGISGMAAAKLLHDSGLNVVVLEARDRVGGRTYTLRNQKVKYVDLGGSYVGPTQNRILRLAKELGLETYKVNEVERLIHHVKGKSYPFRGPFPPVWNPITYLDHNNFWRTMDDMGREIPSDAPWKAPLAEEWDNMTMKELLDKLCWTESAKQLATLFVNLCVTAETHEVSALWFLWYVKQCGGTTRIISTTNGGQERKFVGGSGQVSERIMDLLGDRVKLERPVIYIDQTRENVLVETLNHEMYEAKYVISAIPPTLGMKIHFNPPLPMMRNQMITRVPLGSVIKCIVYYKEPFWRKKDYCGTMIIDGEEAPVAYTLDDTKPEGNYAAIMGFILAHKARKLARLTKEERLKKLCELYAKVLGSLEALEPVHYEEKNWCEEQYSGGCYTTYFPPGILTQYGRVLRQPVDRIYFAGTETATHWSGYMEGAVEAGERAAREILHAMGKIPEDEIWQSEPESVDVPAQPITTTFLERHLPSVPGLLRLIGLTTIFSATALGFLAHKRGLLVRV

[9] = physchem; settings: water

For `C#CCN[C@@H]1CCc2ccccc21` [Mesylate, Rasagiline mesylate], the “Hygroscopicity by KF” value ([1]; Table 8c) is listed as “Not hygroscopic”.
For `C#CCN[C@@H]1CCc2ccccc21.C#CCN[C@@H]1CCc2ccccc21.O=C(O)CC(O)(CC(=O)O)C(=O)O` [Example 4c], the “Changes on exposure to atmosphere (appearance)” value (from here on “Changes on exposure”) ([2]; 0:00 hrs:min) was “Powder”, the “Changes on exposure” value ([2]; 0:50-1:00 hrs:min) was “Powder” and the “Changes on exposure” value ([2]; 0:30 hrs:min) was “Powder”. For the same compound, the “Changes on exposure” value ([2]; 1:50-2:00 hrs:min) was “Powder”, the “Changes on exposure” value ([2]; 5:00 hrs:min) was “Lump powder” and the precipitation from solution [3] was “No precipitation”. The “Appearance stored in refrigerator” value ([4]; 0 month) was “White powder”, the “Appearance stored in refrigerator” value ([4]; 3 months) was “White powder” and the “Appearance stored in refrigerator” value ([4]; 6 months) was “White powder”.
With `C#CCN[C@@H]1CCc2ccccc21.O=C(O)CC(O)(CC(=O)O)C(=O)O` [Example 4b] the “Changes on exposure” value ([2]; 0:00 hrs:min) was “Powder”, the “Changes on exposure” value ([2]; 1:50-2:00 hrs:min) was “Semi-solid” and the “Changes on exposure” value ([2]; 6:00 hrs:min) was “Syrup”. The “Changes on exposure” value ([2]; 7:00 hrs:min) was “Syrup”, the precipitation from solution [3] was “No precipitation” and the “Appearance stored in refrigerator” value ([4]; 0 month) was “White powder”. For the same compound, the “Appearance stored in refrigerator” value ([4]; 3 months) was “White powder” and the “Appearance stored in refrigerator” value ([4]; 6 months) was “White powder”.
For `C#CCN[C@@H]1CCc2ccccc21.O=C(O)CC(O)(CC(=O)O)C(=O)O` [Mono-citrate, mono-rasagiline citrate], the “Content of extractable base (toluene) % on total base content” value (from here on “Content of extractable base (toluene) %”) [5] was 1.75-3.6%.
For `Cl` [Chloride], the “Hygroscopicity by KF” value ([1]; Table 8c) is given as “Not hygroscopic”.
In the case of `C#CCNC1CCc2ccccc21.C#CCNC1CCc2ccccc21.C#CCNC1CCc2ccccc21.O=C(O)CC(O)(CC(=O)O)C(=O)O` (stereo not drawn) [Tri-citrate, tri-rasagiline citrate], the “Content of extractable base (toluene) %” value [5] is reported as 42.7%.
In the case of `O=C(O)CC(O)(CC(=O)O)C(=O)O` [Citric Acid, Citric acid], the “Hygroscopicity by KF” value ([1]; Table 8b) is listed as “low”.
For `C#CCN[C@@H]1CCc2ccccc21.C#CCN[C@@H]1CCc2ccccc21.C#CCN[C@@H]1CCc2ccccc21.O=C(O)CC(O)(CC(=O)O)C(=O)O` [Example 4d], the “Changes on exposure” value ([2]; 0:00 hrs:min) was “Powder”, the “Changes on exposure” value ([2]; 0:30 hrs:min) was “Powder” and the “Changes on exposure” value ([2]; 5:00 hrs:min) was “Semi-solid”. The “Changes on exposure” value ([2]; 6:00 hrs:min) was “Semi-solid”, the precipitation from solution [3] was “No precipitation” and the “Appearance stored in refrigerator” value ([4]; 0 month) was “White powder”. The “Appearance stored in refrigerator” value ([4]; 3 months) was “White powder” and the “Appearance stored in refrigerator” value ([4]; 6 months) was “White powder”.
For `C#CCN[C@@H]1CCc2ccccc21.O=C(O)CC(O)(CC(=O)O)C(=O)O` [Example 5.1], the “Extracted R-PAI (%)” value ([5]; free base extracted with toluene, solvent and citric acid:base mole proportions per example) was 0.06 g-1.75%.
For Tosylate, the “Water solubility” value ([6]; Table 8c, from references) is listed as 60000 to 70000 µg/mL.
For Oxalate, the “Hygroscopicity by KF” value ([1]; Table 8c) is given as “Not hygroscopic”.
For `C#CCN[C@@H]1CCc2ccccc21` [Rasagiline, R(+)-N-propargyl-1-aminoindan], the “dissolves in aqueous reaction solution” value [7] is listed as “more than 10 wt %”, the “inhibition of MAO-B” value [8] is listed as “selective inhibitor” and the “Hygroscopicity by KF” value ([1]; Table 8b) is listed as “Not hygroscopic”. For the same compound, the solubility [9] was roughly 2000 µg/mL (≈ 11.7 mM).
For rasagiline maleate, the “Water solubility (mg/ml)” value ([6]; Table 8c, from references) is given as “>=1000 mg/ml” and the solubility ([6]; as described in U.S. Pat. No. 6,630,514) is given as “not less than 1000 mg/ml water”.
In the case of `C#CCN[C@@H]1CCc2ccccc21.C#CCN[C@@H]1CCc2ccccc21.O=S(=O)(O)CCS(=O)(=O)O` [Edisilate], the “Hygroscopicity by KF” value ([1]; Table 8c) is given as “Not hygroscopic”.
With `C#CCNC1CCc2ccccc21.C#CCNC1CCc2ccccc21.O=C(O)CC(O)(CC(=O)O)C(=O)O` (stereo not drawn) [Di-citrate, di-rasagiline citrate] the “Content of extractable base (toluene) %” value [5] was 22.0%.
In the case of rasagiline citrate, the “hygroscopicity (in words)” value ([2]; exposed to air/humidity at ambient temperature) is reported as “highest hygroscopicity”.
